# In patent US20250345253A1 (priority 2024, published 2025):
# Experiment: In vitro whitening and cleaning of stained test samples
smiles,measurement,setting,value
O=c1nc([O-])n(Cl)c(=O)n1Cl.[Na+] [dichloroisocyanurate],Whitening and cleaning performance versus hydrogen peroxide solutions and salts,compared with cleaning solutions of up to 25% hydrogen peroxide and hydrogen peroxide salts (sodium perborate),outperformed both hydrogen peroxide cleaning solutions of up to 25% hydrogen peroxide and hydrogen peroxide salts (sodium perborate)
same,Whitening and cleaning of stained test samples,compared with other cleaning formulations containing hydrogen peroxide,whitened and cleaned stained test samples better than other cleaning formulations containing hydrogen peroxide
